“And” between values parts separate entries of the source, which are not always exact repeats. Equal entries are not always repeated.
Tests used:
Human 5-HT7 = Human 5-HT7 (Homo sapiens, UniProt P34969); experiment: Radioligand binding: Human 5-HT7
Rat Ca2+ channel (N) = Rat Ca2+ channel (N) (Rattus norvegicus, UniProt Q02294); experiment: biochemical; type: binding
Human V1a = Human V1a (Homo sapiens, UniProt P37288); experiment: Radioligand binding: Human V1a
[1] = biological target: Human norepinephrine transporter (Homo sapiens, UniProt P23975); experiment: Radioligand binding: Human norepinephrine transporter
Chain of Human norepinephrine transporter (P23975 whole entry): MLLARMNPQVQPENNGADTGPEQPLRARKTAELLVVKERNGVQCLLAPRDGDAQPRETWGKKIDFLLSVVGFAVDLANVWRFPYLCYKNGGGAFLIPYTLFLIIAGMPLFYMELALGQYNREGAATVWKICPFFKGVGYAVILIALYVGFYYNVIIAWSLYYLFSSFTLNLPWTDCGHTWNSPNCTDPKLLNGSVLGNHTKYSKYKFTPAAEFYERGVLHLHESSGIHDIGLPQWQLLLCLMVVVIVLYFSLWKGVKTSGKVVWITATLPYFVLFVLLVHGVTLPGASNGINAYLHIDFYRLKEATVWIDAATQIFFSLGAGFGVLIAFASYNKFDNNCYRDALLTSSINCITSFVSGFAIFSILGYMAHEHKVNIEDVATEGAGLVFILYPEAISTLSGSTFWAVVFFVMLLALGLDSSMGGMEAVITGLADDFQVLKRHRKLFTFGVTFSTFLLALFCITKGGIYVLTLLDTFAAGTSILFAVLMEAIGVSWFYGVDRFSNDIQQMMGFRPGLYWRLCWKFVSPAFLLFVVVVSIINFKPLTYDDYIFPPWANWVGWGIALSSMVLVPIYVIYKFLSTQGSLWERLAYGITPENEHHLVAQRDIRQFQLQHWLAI

Bovine 5-HT1D = Bovine 5-HT1D (Bos taurus, UniProt F1MMU1); experiment: Radioligand binding: Bovine 5-HT1D
Human δ2 = Human δ2 (Homo sapiens, UniProt P41143); experiment: Radioligand binding: Human δ2 opiate receptor
Human ETA = Human ETA (Homo sapiens, UniProt P25101); experiment: Radioligand binding: Human ETA
Human 5-HT1A = Human 5-HT1A (Homo sapiens, UniProt P08908); experiment: Radioligand binding: Human 5-HT1A
Rat CRF1 = Rat CRF1 (Rattus norvegicus, UniProt P35353); experiment: Radioligand binding: Rat CRF1
Chain of Rat CRF1 (P35353 24-415): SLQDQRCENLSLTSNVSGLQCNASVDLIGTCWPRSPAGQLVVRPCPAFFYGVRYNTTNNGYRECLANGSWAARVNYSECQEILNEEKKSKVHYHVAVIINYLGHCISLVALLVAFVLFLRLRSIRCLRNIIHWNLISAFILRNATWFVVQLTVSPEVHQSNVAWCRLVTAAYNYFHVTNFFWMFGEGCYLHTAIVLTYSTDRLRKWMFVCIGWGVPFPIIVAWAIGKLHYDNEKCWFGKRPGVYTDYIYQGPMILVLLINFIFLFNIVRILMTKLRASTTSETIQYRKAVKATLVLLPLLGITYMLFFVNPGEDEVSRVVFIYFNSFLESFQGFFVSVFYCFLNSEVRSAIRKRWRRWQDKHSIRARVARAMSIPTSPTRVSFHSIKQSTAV

5-HT4 receptor = 5-HT4 receptor (Cavia porcellus, UniProt O70528); experiment: Guinea pig colonic longitudinal muscle/myenteric plexus; conditions: isolated tissue, % of primed 5-HT (0.3 μM) maximum
Human A1 = Human A1 (Homo sapiens, UniProt P30542); experiment: Radioligand binding: Human A1
Chain of Human A1 (P30542 whole entry): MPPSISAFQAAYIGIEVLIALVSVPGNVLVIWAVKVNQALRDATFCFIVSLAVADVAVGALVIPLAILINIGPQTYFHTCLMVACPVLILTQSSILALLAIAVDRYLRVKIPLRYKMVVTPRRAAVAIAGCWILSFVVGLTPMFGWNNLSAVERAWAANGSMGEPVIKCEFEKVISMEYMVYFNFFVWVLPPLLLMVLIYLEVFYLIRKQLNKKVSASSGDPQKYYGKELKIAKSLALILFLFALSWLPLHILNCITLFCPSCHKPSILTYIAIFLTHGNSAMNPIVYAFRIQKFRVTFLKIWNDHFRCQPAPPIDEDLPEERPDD

Rat dopamine transporter = Rat dopamine transporter (Rattus norvegicus, UniProt P23977); experiment: Radioligand binding: Rat dopamine transporter
Chain of Rat dopamine transporter (P23977 whole entry): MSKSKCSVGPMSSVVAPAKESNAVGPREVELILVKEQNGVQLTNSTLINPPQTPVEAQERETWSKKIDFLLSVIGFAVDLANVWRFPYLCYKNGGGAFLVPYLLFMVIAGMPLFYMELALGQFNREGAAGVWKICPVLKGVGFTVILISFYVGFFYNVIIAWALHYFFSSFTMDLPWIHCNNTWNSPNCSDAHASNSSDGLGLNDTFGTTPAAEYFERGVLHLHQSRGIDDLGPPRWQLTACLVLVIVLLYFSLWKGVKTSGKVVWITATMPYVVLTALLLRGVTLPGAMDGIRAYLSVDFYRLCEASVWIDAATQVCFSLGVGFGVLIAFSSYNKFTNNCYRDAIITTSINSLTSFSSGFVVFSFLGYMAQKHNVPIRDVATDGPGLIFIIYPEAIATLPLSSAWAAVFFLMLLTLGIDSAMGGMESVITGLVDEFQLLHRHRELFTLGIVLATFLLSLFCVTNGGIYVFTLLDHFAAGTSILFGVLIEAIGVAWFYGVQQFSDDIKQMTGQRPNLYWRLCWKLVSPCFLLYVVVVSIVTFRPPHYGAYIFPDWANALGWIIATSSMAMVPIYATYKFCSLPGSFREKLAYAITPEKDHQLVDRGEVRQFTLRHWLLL

Human Y2 = Human Y2 (Homo sapiens, UniProt P49146); experiment: Radioligand binding: Human Y2
Chain of Human Y2 (P49146 whole entry): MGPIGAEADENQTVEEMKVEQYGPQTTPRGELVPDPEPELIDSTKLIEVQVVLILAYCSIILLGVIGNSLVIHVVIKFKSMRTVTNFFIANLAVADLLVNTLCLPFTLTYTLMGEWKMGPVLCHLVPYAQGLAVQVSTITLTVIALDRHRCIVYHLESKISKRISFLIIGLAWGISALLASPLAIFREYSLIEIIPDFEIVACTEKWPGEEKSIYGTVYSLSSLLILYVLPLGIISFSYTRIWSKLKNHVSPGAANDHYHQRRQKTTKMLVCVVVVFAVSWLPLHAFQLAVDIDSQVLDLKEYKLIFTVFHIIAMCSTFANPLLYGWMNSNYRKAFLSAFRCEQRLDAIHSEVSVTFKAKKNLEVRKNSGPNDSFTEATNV

Human V2 = Human V2 (Homo sapiens, UniProt P30518); experiment: Radioligand binding: Human V2
K+ATP channel = K+ATP channel (Rattus norvegicus, UniProt Q09429); experiment: Radioligand binding: K+ATP channel; conditions: read-out: % Inhibition of specific binding (1 μM)
rat Nav1.2 = experiment: Whole cell voltage-clamp, neuronal sodium current; conditions: 3 μM for 3 min, n = 3 cells
Human COX1 = Human COX1 (Homo sapiens, UniProt P23219); experiment: Enzyme inhibition: Human COX1
Chain of Human COX1 (P23219 24-599): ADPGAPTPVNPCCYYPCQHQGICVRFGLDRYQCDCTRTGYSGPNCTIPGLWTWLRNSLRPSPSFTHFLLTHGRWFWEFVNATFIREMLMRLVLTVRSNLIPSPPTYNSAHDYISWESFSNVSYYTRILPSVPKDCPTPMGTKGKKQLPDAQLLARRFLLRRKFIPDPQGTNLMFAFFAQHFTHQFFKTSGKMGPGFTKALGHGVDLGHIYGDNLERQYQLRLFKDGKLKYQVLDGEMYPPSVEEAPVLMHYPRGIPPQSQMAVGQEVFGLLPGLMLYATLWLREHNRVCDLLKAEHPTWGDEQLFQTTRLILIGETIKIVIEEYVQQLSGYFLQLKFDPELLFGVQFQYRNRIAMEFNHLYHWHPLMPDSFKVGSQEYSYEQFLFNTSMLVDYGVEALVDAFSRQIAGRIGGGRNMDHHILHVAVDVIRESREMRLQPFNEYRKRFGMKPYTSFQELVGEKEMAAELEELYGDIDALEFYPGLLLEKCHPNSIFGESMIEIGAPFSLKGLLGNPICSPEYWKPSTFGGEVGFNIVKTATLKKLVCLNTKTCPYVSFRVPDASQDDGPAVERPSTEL

Human D4.4 = Human D4.4 (Homo sapiens, UniProt P21917); experiment: Radioligand binding: Human D4.4
Chain of Human D4.4 (P21917 whole entry): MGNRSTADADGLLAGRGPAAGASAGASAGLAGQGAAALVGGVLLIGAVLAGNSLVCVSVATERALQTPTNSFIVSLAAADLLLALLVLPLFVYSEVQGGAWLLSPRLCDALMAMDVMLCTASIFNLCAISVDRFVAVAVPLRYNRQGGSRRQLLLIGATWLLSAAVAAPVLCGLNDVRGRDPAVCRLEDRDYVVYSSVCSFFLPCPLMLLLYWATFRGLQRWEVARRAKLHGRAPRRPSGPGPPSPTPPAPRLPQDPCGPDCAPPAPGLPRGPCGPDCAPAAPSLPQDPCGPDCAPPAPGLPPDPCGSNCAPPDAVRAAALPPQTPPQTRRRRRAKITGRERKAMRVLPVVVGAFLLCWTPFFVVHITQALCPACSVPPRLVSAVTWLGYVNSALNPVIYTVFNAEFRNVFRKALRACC

human Nav1.5 = human Nav1.5 (Homo sapiens, UniProt Q14524); experiment: Whole cell voltage-clamp, cardiac sodium current; conditions: 3 μM for 3 min, n = 3 cells
Human D5 = Human D5 (Homo sapiens, UniProt P21918); experiment: Radioligand binding: Human D5
Human Y1 = Human Y1 (Homo sapiens, UniProt P25929); experiment: Radioligand binding: Human Y1
Human 5-HT transporter = Human 5-HT transporter (Homo sapiens, UniProt P31645); experiment: Radioligand binding: Human 5-HT transporter
Human M5 = Human M5 (Homo sapiens, UniProt P08912); experiment: Radioligand binding: Human M5
Rat NMDA = Rat NMDA (Rattus norvegicus, UniProt Q00959); experiment: Radioligand binding: Rat NMDA; conditions: read-out: % Inhibition of specific binding (1 μM)
Human motilin = Human motilin (Homo sapiens, UniProt O43193); experiment: Radioligand binding: Human motilin
Rat GABA (non-selective) = experiment: Radioligand binding: Rat GABA; conditions: [3H]-GABA 10 nM
Rat adenylyl cyclase = experiment: Enzyme inhibition: Rat adenylyl cyclase; conditions: ATP 500 μM, TD-8954 1 μM
healthy human subjects = experiment: Human single ascending dose study, bowel movements; type: in vivo
[2] = biological target: Rat Ca2+ channel (L, DHP site); experiment: Radioligand binding: Rat Ca2+ channel; conditions: [3H]-(+)PN 200-110 0.04 nM
Human CCK2 (CCKB) = Human CCK2 (CCKB) (Homo sapiens, UniProt P32239); experiment: Radioligand binding: Human CCK2
Chain of Human CCK2 (CCKB) (P32239 whole entry): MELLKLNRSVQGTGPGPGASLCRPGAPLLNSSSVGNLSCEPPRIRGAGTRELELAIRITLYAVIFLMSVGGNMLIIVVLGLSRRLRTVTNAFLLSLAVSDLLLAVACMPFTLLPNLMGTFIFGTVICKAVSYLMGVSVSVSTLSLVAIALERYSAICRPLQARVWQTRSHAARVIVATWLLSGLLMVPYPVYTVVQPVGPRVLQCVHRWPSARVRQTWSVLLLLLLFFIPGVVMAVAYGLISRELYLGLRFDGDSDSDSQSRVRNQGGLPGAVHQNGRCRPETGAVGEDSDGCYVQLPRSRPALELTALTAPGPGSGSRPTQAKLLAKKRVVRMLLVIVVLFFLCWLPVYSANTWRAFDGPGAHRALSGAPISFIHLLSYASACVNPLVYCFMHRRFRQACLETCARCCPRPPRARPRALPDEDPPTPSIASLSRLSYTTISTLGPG

Rat α2 (non-selective) = experiment: Radioligand binding: Rat α2; conditions: [3H]-RX 821002 0.5 nM
[3] = biological target: Rat Ca2+ channel (L, diltiazem site); experiment: Radioligand binding: Rat Ca2+ channel; conditions: [3H]-diltiazem 5 nM
Human 5-HT6 = Human 5-HT6 (Homo sapiens, UniProt P50406); experiment: Radioligand binding: Human 5-HT6
Human NK3 = Human NK3 (Homo sapiens, UniProt P29371); experiment: Radioligand binding: Human NK3
Chain of Human NK3 (P29371 whole entry): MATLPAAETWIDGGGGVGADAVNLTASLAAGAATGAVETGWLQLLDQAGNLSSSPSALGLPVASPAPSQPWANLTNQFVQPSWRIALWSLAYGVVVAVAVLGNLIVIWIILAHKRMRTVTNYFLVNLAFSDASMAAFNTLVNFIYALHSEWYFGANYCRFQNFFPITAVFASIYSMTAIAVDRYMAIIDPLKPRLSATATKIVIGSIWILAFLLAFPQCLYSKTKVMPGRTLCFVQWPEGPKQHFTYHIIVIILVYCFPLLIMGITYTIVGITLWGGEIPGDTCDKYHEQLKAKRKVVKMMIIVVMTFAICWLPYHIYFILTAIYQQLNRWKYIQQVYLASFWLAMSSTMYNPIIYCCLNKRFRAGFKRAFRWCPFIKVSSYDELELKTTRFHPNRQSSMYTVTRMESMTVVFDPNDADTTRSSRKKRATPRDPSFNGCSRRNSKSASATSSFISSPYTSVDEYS

[4] = read-out: % Inhibition of specific binding (1 μM)

Chain of Human V1a (P37288 whole entry): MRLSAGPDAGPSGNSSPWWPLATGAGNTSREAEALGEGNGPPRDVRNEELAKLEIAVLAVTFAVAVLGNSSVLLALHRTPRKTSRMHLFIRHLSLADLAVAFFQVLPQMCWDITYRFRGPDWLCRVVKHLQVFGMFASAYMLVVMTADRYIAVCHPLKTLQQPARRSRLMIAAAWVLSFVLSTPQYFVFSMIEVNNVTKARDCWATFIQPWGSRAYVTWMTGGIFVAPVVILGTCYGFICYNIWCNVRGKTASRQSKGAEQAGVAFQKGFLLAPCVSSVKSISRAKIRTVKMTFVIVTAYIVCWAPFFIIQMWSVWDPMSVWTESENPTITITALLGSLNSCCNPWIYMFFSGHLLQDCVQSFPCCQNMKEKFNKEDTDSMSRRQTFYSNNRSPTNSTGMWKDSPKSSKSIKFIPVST

## COC(=O)N1CCC(CN2CCC(CNC(=O)c3cccc4[nH]c(C(C)C)nc34)CC2)CC1 [TD-8954, 4-(4-{[(2-isopropyl-1H-benzoimidazole-4-carbonyl)amino]methyl}-piperidin-1-ylmethyl)piperidine-1-carboxylic acid methyl ester]
Human 5-HT7
  Ki: > 1 µM
Rat Ca2+ channel (N)
  Ki: > 1 µM
Human V1a
  Ki: > 1 µM
Human V1a; [4]
  inhibition at 1 µM: 1%
[1]
  Ki: > 1 µM
[1]; [4]
  inhibition at 1 µM: 6%
Bovine 5-HT1D
  Ki: > 1 µM
Human δ2
  Ki: > 1 µM
Human ETA
  Ki: > 1 µM
Human 5-HT1A
  Ki: > 1 µM
Rat CRF1
  Ki: > 1 µM
Rat CRF1; [4]
  inhibition at 1 µM: -6%
5-HT4 receptor
  Guinea pig colonic LMMP contractile activity IA (mean % 5-HT max ± SEM): 55 % 5-HT max and 55 ± 2 % 5-HT max
Human A1
  Ki: > 1 µM
Human A1; [4]
  inhibition at 1 µM: -4%
Rat dopamine transporter
  Ki: > 1 µM
Rat dopamine transporter; [4]
  inhibition at 1 µM: 3%
Human Y2
  Ki: > 1 µM
Human Y2; [4]
  inhibition at 1 µM: -5%
Human V2
  Ki: > 1 µM
K+ATP channel
  inhibition at 1 µM: 5%
Rat Nav1.2
  effect on magnitude of inward rat Nav1.2a sodium current: no effect
Human COX1
  IC50: > 1 µM
Human COX1; read-out: % Inhibition of control (1 μM)
  inhibition at 1 µM: 2%
Human D4.4
  Ki: > 1 µM
Human D4.4; [4]
  inhibition at 1 µM: 6%
Human Nav1.5
  effect on magnitude of inward human Nav1.5 sodium current: no effect
Human D5
  Ki: > 1 µM
Human Y1
  Ki: > 1 µM
Human 5-HT transporter
  Ki: > 1 µM
Human M5
  Ki: > 10 µM
Rat NMDA
  inhibition at 1 µM: -6%
Human motilin
  Ki: > 1 µM
Rat GABA (non-selective)
  pKi: <6
Rat GABA (non-selective); TD-8954 1 μM
  % Inhibition of specific binding (1 μM): −6%
Rat adenylyl cyclase
  % Inhibition of control (1 μM): 5%
Healthy human subjects; single oral dose
  dose producing a maximal response: 0.5 mg
  lowest dose associated with a prokinetic effect: 0.1 mg
Healthy human subjects; single oral dose 0.1–20 mg, p < 0.05
  time to first bowel movement compared to placebo: statistically significant reduction
[2]
  pKi: <6
Human CCK2 (CCKB)
  Ki: > 1 µM
Human CCK2 (CCKB); [4]
  inhibition at 1 µM: -1%
Rat α2 (non-selective)
  pKi: <6
[3]
  pKi: <6
Human 5-HT6
  Ki: > 1 µM
Human NK3
  Ki: > 1 µM
Human NK3; [4]
  inhibition at 1 µM: -3%

Reference: paper PMC3108484 (Frontiers in Pharmacology, 2011)
